# Assay results taken from publication PMC8674134, “Safety and efficacy of avapritinib in advanced systemic mastocytosis: the phase 1 EXPLORER trial” (Nature Medicine, 2021).
# Test system: advanced systemic mastocytosis (AdvSM)
# Assay: Centrally adjudicated response by mIWG-MRT-ECNM criteria (ORR, best response, time to response, C-finding improvement)
# Format: in vivo, human
# Text: The primary endpoints were MTD, RP2D and assessment of safety. Secondary endpoints included the ORR based on measurable C-finding responses per mIWG-MRT-ECNM criteria, which require 12-week confirmation of response. Responses in C-findings were centrally adjudicated by a Response Adjudication Committee (RAC) comprising a subset of study investigators (see below for further details and a list of RAC members). ORR included: CR or CRh (including complete resolution of all C-findings, elimination of marrow mast cell aggregates and serum tryptase <20 ng ml^−1); PR (resolution of ≥1 C-finding and ≥50% reduction in marrow mast cells and serum tryptase); and clinical improvement (resolution of ≥1 C-finding).
# The safety population included all enrolled patients and was used to report AEs and PROs (in those who completed the questionnaire). The dose-determining population included all patients in a cohort in part 1 who received ≥21 prescribed avapritinib doses in C1 and completed follow-up through C1, or experienced DLT. The determination of the MTD and RP2D were based on the dose-determining population. […] The AdvSM safety population was also used to report AEs and OS. […] The response-evaluable population was used to report adjudicated response rates and PFS. The PK population comprised all patients with sufficient plasma concentration–time data to reliably estimate the PK parameters of avapritinib.
# ORR was defined as the proportion of patients with a confirmed best response of CR, CRh, PR or clinical improvement by mIWG-MRT-ECNM consensus criteria. Time to CR/CRh/PR was defined as the time from the start of treatment to the time a CR/CRh/PR by mIWG-MRT-ECNM was first met. DOR was defined as the time from first documented response to the date of first documented progressive disease/loss of response or death due to any cause, whichever occurred first. OS was defined as the time from the start of treatment to the date of death. PFS was defined as the time from the start of treatment to the date of first documented progressive disease or death due to any cause, whichever occurred first. Progressive disease was defined per mIWG-MRT-ECNM criteria as worsening of ≥1 baseline C-finding confirmed for at least 4 weeks, or progression to acute myeloid leukemia.
# Primary ORR analysis was based on RAC-adjudicated responses in the response-evaluable population. ORR was estimated using frequency, percentage and two-sided 95% CIs based on the exact binomial distribution (Clopper–Pearson). Statistical testing on binomial proportion against a null of 28% was performed using one-sided α = 0.025. Wald test P value was presented. CR + CRh + PR rate was summarized similarly as ORR. Statistical testing on binomial proportion against a null of 17% was performed using one-sided α = 0.025.
# [1] = 53 response-evaluable patients, mIWG-MRT-ECNM
# [2] = Prior midostaurin exposure (n = 17)
# [3] = of 2 patients with C-finding at baseline, response-evaluable population (n = 53)
# [4] = of 18 patients with C-finding at baseline, response-evaluable population (n = 53)
# [5] = response-evaluable population (n = 53)
structure (smiles),measurement,setting,value
Cn1cc(-c2cc3c(N4CCN(c5ncc([C@@](C)(N)c6ccc(F)cc6)cn5)CC4)ncnn3c2)cn1 [avapritinib],Clinical improvement rate,53 response-evaluable patients,6%
same,Partial remission (PR) rate,53 response-evaluable patients,34%
same,CR or CRh rate,[1],36%
same,Overall response rate (ORR; CR/CRh/PR/CI),[1],75%
same,Best response CI (clinical improvement),ASM (n = 3),0 n (%)
same,Best response CR,ASM (n = 3),0 n (%)
same,Best response CR or CRh,ASM (n = 3),2 (67) n (%)
same,Best response CRh,ASM (n = 3),2 (67) n (%)
same,Best response NE (not evaluable),ASM (n = 3),0 n (%)
same,Best response PD,ASM (n = 3),0 n (%)
same,Best response PR,ASM (n = 3),1 (33) n (%)
same,Best response SD,ASM (n = 3),0 n (%)
same,ORR (CR + CRh + PR + CI),ASM (n = 3),3 (100) n (%)
same,Best response CI (clinical improvement),All AdvSM (n = 53),3 (6) n (%)
same,Best response CR,All AdvSM (n = 53),8 (15) n (%)
same,Best response CR or CRh,All AdvSM (n = 53),19 (36) n (%)
same,Best response CRh,All AdvSM (n = 53),11 (21) n (%)
same,Best response NE (not evaluable),All AdvSM (n = 53),1 (2) n (%)
same,Best response PD,All AdvSM (n = 53),0 n (%)
same,Best response PR,All AdvSM (n = 53),18 (34) n (%)
same,Best response SD,All AdvSM (n = 53),12 (23) n (%)
same,ORR (CR + CRh + PR + CI),All AdvSM (n = 53),40 (75) n (%)
same,Best response CI (clinical improvement),Any prior therapy (n = 32),2 (6) n (%)
same,Best response CR,Any prior therapy (n = 32),4 (13) n (%)
same,Best response CR or CRh,Any prior therapy (n = 32),9 (28) n (%)
same,Best response CRh,Any prior therapy (n = 32),5 (16) n (%)
same,Best response NE (not evaluable),Any prior therapy (n = 32),1 (3) n (%)
same,Best response PD,Any prior therapy (n = 32),0 n (%)
same,Best response PR,Any prior therapy (n = 32),11 (34) n (%)
same,Best response SD,Any prior therapy (n = 32),9 (28) n (%)
same,ORR (CR + CRh + PR + CI),Any prior therapy (n = 32),22 (69) n (%)
same,Best response CI (clinical improvement),MCL (n = 13),2 (15) n (%)
same,Best response CR,MCL (n = 13),3 (23) n (%)
same,Best response CR or CRh,MCL (n = 13),3 (23) n (%)
same,Best response CRh,MCL (n = 13),0 n (%)
same,Best response NE (not evaluable),MCL (n = 13),0 n (%)
same,Best response PD,MCL (n = 13),0 n (%)
same,Best response PR,MCL (n = 13),4 (31) n (%)
same,Best response SD,MCL (n = 13),4 (31) n (%)
same,ORR (CR + CRh + PR + CI),MCL (n = 13),9 (69) n (%)
same,Best response CI (clinical improvement),Midostaurin naïve (n = 36),2 (6) n (%)
same,Best response CR,Midostaurin naïve (n = 36),6 (17) n (%)
same,Best response CR or CRh,Midostaurin naïve (n = 36),16 (44) n (%)
same,Best response CRh,Midostaurin naïve (n = 36),10 (28) n (%)
same,Best response NE (not evaluable),Midostaurin naïve (n = 36),0 n (%)
same,Best response PD,Midostaurin naïve (n = 36),0 n (%)
same,Best response PR,Midostaurin naïve (n = 36),12 (33) n (%)
same,Best response SD,Midostaurin naïve (n = 36),6 (17) n (%)
same,ORR (CR + CRh + PR + CI),Midostaurin naïve (n = 36),30 (83) n (%)
same,Best response CI (clinical improvement),No prior therapy (n = 21),1 (5) n (%)
same,Best response CR,No prior therapy (n = 21),4 (19) n (%)
same,Best response CR or CRh,No prior therapy (n = 21),10 (48) n (%)
same,Best response CRh,No prior therapy (n = 21),6 (29) n (%)
same,Best response NE (not evaluable),No prior therapy (n = 21),0 n (%)
same,Best response PD,No prior therapy (n = 21),0 n (%)
same,Best response PR,No prior therapy (n = 21),7 (33) n (%)
same,Best response SD,No prior therapy (n = 21),3 (14) n (%)
same,ORR (CR + CRh + PR + CI),No prior therapy (n = 21),18 (86) n (%)
same,Best response CI (clinical improvement),[2],1 (6) n (%)
same,Best response CR,[2],2 (12) n (%)
same,Best response CR or CRh,[2],3 (18) n (%)
same,Best response CRh,[2],1 (6) n (%)
same,Best response NE (not evaluable),[2],1 (6) n (%)
same,Best response PD,[2],0 n (%)
same,Best response PR,[2],6 (35) n (%)
same,Best response SD,[2],6 (35) n (%)
same,ORR (CR + CRh + PR + CI),[2],10 (59) n (%)
same,Best response CI (clinical improvement),SM-AHN (n = 37),1 (3) n (%)
same,Best response CR,SM-AHN (n = 37),5 (14) n (%)
same,Best response CR or CRh,SM-AHN (n = 37),14 (38) n (%)
same,Best response CRh,SM-AHN (n = 37),9 (24) n (%)
same,Best response NE (not evaluable),SM-AHN (n = 37),1 (3) n (%)
same,Best response PD,SM-AHN (n = 37),0 n (%)
same,Best response PR,SM-AHN (n = 37),13 (35) n (%)
same,Best response SD,SM-AHN (n = 37),8 (22) n (%)
same,ORR (CR + CRh + PR + CI),SM-AHN (n = 37),28 (76) n (%)
same,Median time to achieve CR/CRh,all starting doses,9 months
same,Median time to achieve PR or better (CR/CRh/PR),"all starting doses, range, 2–27 months",2 months
same,CR rate,midostaurin-naïve patients (6/36),17%
same,CRh rate,midostaurin-naïve patients (10/36),28%
same,CR/CRh rate,midostaurin-naïve patients (16/36),44%
same,ORR,midostaurin-naïve patients (30/36),83%
same,"Patients with clinical improvement in C-finding: thrombocytopenia, transfusion dependent","of 1 patient with C-finding at baseline, response-evaluable population (n = 53)",0 (0) n (%)
same,"Patients with clinical improvement in C-finding: anemia, transfusion dependent",[3],1 (50) n (%)
same,Patients with clinical improvement in C-finding: pleural effusions,[3],2 (100) n (%)
same,Patients with clinical improvement in C-finding: neutropenia,"of 3 patients with C-finding at baseline, response-evaluable population (n = 53)",0 (0) n (%)
same,Patients with clinical improvement in C-finding: direct bilirubin >1.5 × ULN,"of 6 patients with C-finding at baseline, response-evaluable population (n = 53)",1 (17) n (%)
same,Patients with clinical improvement in C-finding: hypoalbuminemia,"of 7 patients with C-finding at baseline, response-evaluable population (n = 53)",4 (57) n (%)
same,Patients with clinical improvement in C-finding: ascites,"of 10 patients with C-finding at baseline, response-evaluable population (n = 53)",4 (40) n (%)
same,"Patients with clinical improvement in C-finding: anemia, transfusion independent","of 15 patients with C-finding at baseline, response-evaluable population (n = 53)",3 (20) n (%)
same,Patients with clinical improvement in C-finding: ALP >2.5 × ULN,[4],12 (67) n (%)
same,"Patients with clinical improvement in C-finding: thrombocytopenia, transfusion independent",[4],4 (22) n (%)
same,Patients with clinical improvement in C-finding: splenomegaly ≥5 cm,"of 28 patients with C-finding at baseline, response-evaluable population (n = 53)",24 (86) n (%)
same,ORR,patients with co-mutations in S/A/R genes,74%
same,ORR,patients with prior midostaurin exposure (10/17),59%
same,ORR,patients without S/A/R co-mutations,77%
same,CRh rate,prior midostaurin exposure (1/17),6%
same,CR rate,prior midostaurin exposure (2/17),12%
same,CR/CRh rate,prior midostaurin exposure (3/17),18%
same,Median time to clinical improvement: ALP >2.5 × ULN,[5],2.9 months
same,"Median time to clinical improvement: anemia, transfusion dependent",[5],0.3 months
same,"Median time to clinical improvement: anemia, transfusion independent",[5],3.7 months
same,Median time to clinical improvement: ascites,[5],7.4 months
same,Median time to clinical improvement: direct bilirubin >1.5 × ULN,[5],8.3 months
same,Median time to clinical improvement: hypoalbuminemia,[5],3.3 months
same,Median time to clinical improvement: pleural effusions,[5],1.9 months
same,Median time to clinical improvement: splenomegaly ≥5 cm,[5],1.9 months
same,"Median time to clinical improvement: thrombocytopenia, transfusion independent",[5],3.1 months
same,Median time to PR or better (CR/CRh/PR),"starting doses of 200, 300 or 400 mg (≥200 mg QD)",2 months
